# According to patent publication US6506772B1, “Substituted [1,2,4]triazolo[1,5a]pyridine derivatives with activity as adenosine receptor ligands” (Hoffmann-La Roche Inc., priority 2000, dated 2003):
# Tests used:
# [1] = molecular target: T1, human adenosine A2A receptor (Homo sapiens, UniProt P29274); assay: Human adenosine A2A receptor [3H]-SCH-58261 binding assay; settings: for Ki: affinity to human adenosine A2A receptor, read-out: Ki HA2A; for selectivity (A1/A2a): calculated ratio of the affinity to the HA1 receptor to the HA2a receptor
# T1 construct: expressed in transfected cells; host or cells: CHO cells, Semliki Forest virus expression system; membrane preparation
# [2] = molecular target: T2, HA1 adenosine receptor (Homo sapiens, UniProt P30542); assay: Human adenosine A1 receptor affinity (Ki hA1); assay type: binding; settings: affinity to human adenosine A1 receptor
# T2 sequence (P30542 1-326): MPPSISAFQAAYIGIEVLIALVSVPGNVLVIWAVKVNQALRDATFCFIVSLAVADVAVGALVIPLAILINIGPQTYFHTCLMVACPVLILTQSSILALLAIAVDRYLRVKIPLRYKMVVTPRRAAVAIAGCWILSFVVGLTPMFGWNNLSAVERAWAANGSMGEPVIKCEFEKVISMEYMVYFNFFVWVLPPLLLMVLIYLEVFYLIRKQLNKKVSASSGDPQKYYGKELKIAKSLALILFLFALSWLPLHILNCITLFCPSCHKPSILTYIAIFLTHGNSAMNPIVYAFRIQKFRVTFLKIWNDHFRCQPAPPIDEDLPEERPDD
# T1 sequence (P29274 whole entry): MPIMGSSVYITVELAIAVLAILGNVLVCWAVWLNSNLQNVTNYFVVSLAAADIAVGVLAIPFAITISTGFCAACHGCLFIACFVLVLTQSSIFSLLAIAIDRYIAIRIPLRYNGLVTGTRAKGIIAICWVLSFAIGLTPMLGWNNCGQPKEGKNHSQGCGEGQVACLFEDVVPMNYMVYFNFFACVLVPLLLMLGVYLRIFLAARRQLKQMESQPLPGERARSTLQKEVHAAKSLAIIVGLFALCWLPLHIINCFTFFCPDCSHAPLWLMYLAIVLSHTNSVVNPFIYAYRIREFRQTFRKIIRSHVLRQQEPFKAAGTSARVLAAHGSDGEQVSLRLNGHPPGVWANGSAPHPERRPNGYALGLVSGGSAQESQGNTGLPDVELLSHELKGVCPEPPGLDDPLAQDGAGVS
SMILES,Ki [1],selectivity (A1/A2a) [1],Ki [2]
"Cn1cccc1-c1nc2cc(C(=O)NC3CCCCC3)cc(N)n2n1 [Example 179, 5-Amino-2-(1-methyl-1H-pyrrol-2-yl)-[1,2,4]triazolo[1,5-a]pyridine-7-carboxylic acid cyclohexylamide]",0.144 µM,5.4,0.779 µM
"Cn1cccc1-c1nc2cc(C(=O)NCc3ccccc3)cc(N)n2n1 [Example 180, 5-Amino-2-(1-methyl-1H-pyrrol-2-yl)-[1,2,4]triazolo[1,5-a]pyridine-7-carboxylic acid benzylamide]",0.112 µM,2.7,0.307 µM
"Cn1cccc1-c1nc2cc(C(=O)NCc3ccccc3Cl)cc(N)n2n1 [Example 181, 5-Amino-2-(1-methyl-1H-pyrrol-2-yl)-[1,2,4]triazolo[1,5-a]pyridine-7-carboxylic acid 2-chloro-benzylamide]",0.0543 µM,4.7,0.256 µM
"Cn1cccc1-c1nc2cc(C(=O)NCc3ccccc3Br)cc(N)n2n1 [Example 182, 5-Amino-2-(1-methyl-1H-pyrrol-2-yl)-[1,2,4]triazolo[1,5-a]pyridine-7-carboxylic acid 2-bromo-benzylamide]",0.0546 µM,4.9,0.27 µM
"COc1ccc(CNC(=O)c2cc(N)n3nc(-c4ccco4)nc3c2)cc1 [Example 183, 5-Amino-2-furan-2-yl-[1,2,4]triazolo[1,5-a]pyridine-7-carboxylic acid 4-methoxy-benzylamide]",0.0337 µM,9.0,0.302 µM

# Next, values leading:
Ki [1],selectivity (A1/A2a) [1],Ki [2],SMILES
0.0695 µM,1.9,0.133 µM,"CCCCNC(=O)c1cc(N)n2nc(-c3sccc3C)nc2c1 [Example 184, 5-Amino-2-(3-methyl-thiophen-2-yl)-[1,2,4]triazolo[1,5-a]pyridine-7-carboxylic acid butylamide]"
0.238 µM,6.0,1.42 µM,"CCN(CC)C(=O)c1cc(N)n2nc(-c3sccc3C)nc2c1 [Example 185, 5-Amino-2-(3-methyl-thiophen-2-yl)-[1,2,4]triazolo[1,5-a]pyridine-7-carboxylic acid diethylamide]"
0.21 µM,1.2,0.249 µM,"Cc1ccsc1-c1nc2cc(C(=O)N(C(C)C)C(C)C)cc(N)n2n1 [Example 186, 5-Amino-2-(3-methyl-thiophen-2-yl)-[1,2,4]triazolo[1,5-a]pyridine-7-carboxylic acid diisopropylamide]"
0.224 µM,1.0,0.228 µM,"Cc1ccsc1-c1nc2cc(C(=O)NC3CCc4ccccc43)cc(N)n2n1 (stereo not drawn) [Example 187, 5-Amino-2-(3-methyl-thiophen-2-yl)-[1,2,4]triazolo[1,5-a]pyridine-7-carboxylic acid indan-1-ylamide]"
0.226 µM,3.1,0.711 µM,"Cc1ccsc1-c1nc2cc(C(=O)N3CCCC3)cc(N)n2n1 [Example 188, [5-Amino-2-(3-methyl-thiophen-2-yl)-[1,2,4]triazolo[1,5-a]pyridin-7-yl]-pyrrolidin-1-yl-methanone]"
0.268 µM,2.9,0.763 µM,"Cc1ccsc1-c1nc2cc(C(=O)N3CCCCC3)cc(N)n2n1 [Example 189, [5-Amino-2-(3-methyl-thiophen-2-yl)-[1,2,4]triazolo[1,5-a]pyridin-7-yl]-piperidin-1-yl-methanone]"
0.365 µM,0.1,0.0473 µM,"Cc1ccsc1-c1nc2cc(C(=O)NC(C)c3ccccc3)cc(N)n2n1 (stereo not drawn) [Example 190, 5-Amino-2-(3-methyl-thiophen-2-yl)-[1,2,4]triazolo[1,5-a]pyridine-7-carboxylic acid (1-phenyl-ethyl)-amide]"
